Test results from US7183260B2, “C-terminal modified oxamyl dipeptides as inhibitors of the ICE/ced-3 family of cysteine proteases” (Idun Pharmaceuticals, Inc., priority 1998, dated 2007).

Key:
Type in all cases: biochemical
Details in all cases: continuous assay 60 min, reaction initiated by adding enzyme to substrate-inhibitor mixture
[1] = molecular target: T1, mICE (Mus musculus, UniProt P29452); experiment: Dissociation constant Ki and irreversible rate constant k3 for irreversible inhibitors (ICE)
T1 sequence (P29452 123-296 limits assumed): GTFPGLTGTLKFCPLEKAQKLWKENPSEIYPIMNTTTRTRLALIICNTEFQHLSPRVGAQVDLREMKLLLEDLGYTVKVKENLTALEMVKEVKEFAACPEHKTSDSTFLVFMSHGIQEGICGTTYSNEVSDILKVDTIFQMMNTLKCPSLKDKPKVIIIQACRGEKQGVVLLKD
T1 sequence (P29452 315-402 limits assumed): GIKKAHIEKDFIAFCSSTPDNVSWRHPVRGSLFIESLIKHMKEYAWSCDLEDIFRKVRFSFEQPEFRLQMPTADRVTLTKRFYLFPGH

[2] = molecular target: T2, CPP32 (Homo sapiens, UniProt P42574); experiment: Dissociation constant Ki and irreversible rate constant k3 for irreversible inhibitors (CPP32)
T2 sequence (P42574 29-175 limits assumed): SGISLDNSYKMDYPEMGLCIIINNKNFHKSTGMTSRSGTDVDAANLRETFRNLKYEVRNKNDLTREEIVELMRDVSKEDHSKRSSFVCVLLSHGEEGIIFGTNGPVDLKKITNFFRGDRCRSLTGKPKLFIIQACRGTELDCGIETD
T2 sequence (P42574 176-277 limits assumed): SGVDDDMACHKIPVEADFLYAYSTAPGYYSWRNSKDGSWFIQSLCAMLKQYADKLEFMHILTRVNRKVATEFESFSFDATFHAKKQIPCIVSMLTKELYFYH

[3] = molecular target: T3, MCH-2 (Homo sapiens, UniProt P55212); experiment: Dissociation constant Ki and irreversible rate constant k3 for irreversible inhibitors (Mch2)
T3 sequence (P55212 24-179 limits assumed): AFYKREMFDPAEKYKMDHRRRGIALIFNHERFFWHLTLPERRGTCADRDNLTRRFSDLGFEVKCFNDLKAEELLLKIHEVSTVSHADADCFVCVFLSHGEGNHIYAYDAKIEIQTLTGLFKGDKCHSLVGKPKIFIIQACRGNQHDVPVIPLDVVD
T3 sequence (P55212 194-293 limits assumed): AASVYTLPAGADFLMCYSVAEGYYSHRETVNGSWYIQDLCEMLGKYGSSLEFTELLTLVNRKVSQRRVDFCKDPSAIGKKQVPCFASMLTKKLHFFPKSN

[4] = molecular target: MCH-5 (Homo sapiens, UniProt Q14790); experiment: Dissociation constant Ki and irreversible rate constant k3 for irreversible inhibitors (Mch5)
Sequence of MCH-5 (Q14790 217-374 limits assumed, species assumed): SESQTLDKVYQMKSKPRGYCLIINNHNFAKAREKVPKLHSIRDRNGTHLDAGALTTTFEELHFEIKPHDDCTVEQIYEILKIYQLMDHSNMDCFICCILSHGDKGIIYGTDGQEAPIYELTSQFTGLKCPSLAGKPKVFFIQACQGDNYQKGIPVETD
Sequence of MCH-5 (Q14790 385-479 limits assumed, species assumed): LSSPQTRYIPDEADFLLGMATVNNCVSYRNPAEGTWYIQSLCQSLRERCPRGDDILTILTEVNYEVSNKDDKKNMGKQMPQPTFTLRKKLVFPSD

| SMILES | Ki [1] | mICE k3/Ki [1] | CPP32 k3/Ki [2] | Ki [2] | Ki [3] | MCH-2 k3/Ki [3] | Ki [4] | MCH-5 k3/Ki [4] |
| --- | --- | --- | --- | --- | --- | --- | --- | --- |
| CC(C)[C@H](NC(=O)C(=O)Nc1nc2ccccc2[nH]1)C(=O)N[C@@H](CC(=O)O)C(=O)COc1c(F)c(F)cc(F)c1F [Example 88] | 359 nM | 27,400 moles^−1 seconds^−1 | 3,130 moles^−1 seconds^−1 | 3130 nM | 1430 nM | 1,840 moles^−1 seconds^−1 | 128 nM | 20,800 moles^−1 seconds^−1 |
| C[C@H](NC(=O)C(=O)Nc1ccccc1Cl)C(=O)N[C@@H](CC(=O)O)C(=O)COC(=O)c1c(Cl)cccc1Cl [Example 58] | 54 nM | 278,000 moles^−1 seconds^−1 | 323,000 moles^−1 seconds^−1 | 43 nM | 18 nM | 281,000 moles^−1 seconds^−1 | 7.1 nM | 396,000 moles^−1 seconds^−1 |
| CC(C)[C@H](NC(=O)C(=O)Nc1ccccc1C(F)(F)F)C(=O)N[C@@H](CC(=O)O)C(=O)COc1c(F)c(F)cc(F)c1F [Example 92] | 11 nM | 1,044,000 moles^−1 seconds^−1 | 57,400 moles^−1 seconds^−1 | 175 nM | 12 nM | 261,000 moles^−1 seconds^−1 | 6 nM | 41,000 moles^−1 seconds^−1 |
| C[C@H](NC(=O)C(=O)Nc1ccc(F)cc1)C(=O)N[C@@H](CC(=O)O)C(=O)COC(=O)c1c(Cl)cccc1Cl [Example 44] | 1450 nM | 11,700 moles^−1 seconds^−1 | 22,700 moles^−1 seconds^−1 | 1280 nM | 142 nM | 18,600 moles^−1 seconds^−1 | 462 nM | 18,700 moles^−1 seconds^−1 |
| CC(C)[C@H](NC(=O)C(=O)Nc1ccccc1F)C(=O)N[C@@H](CC(=O)O)C(=O)COc1c(F)c(F)cc(F)c1F [Example 90] | 147 nM | 58,500 moles^−1 seconds^−1 | 5,560 moles^−1 seconds^−1 | 2270 nM | 221 nM | 11,200 moles^−1 seconds^−1 | 40 nM | 49,600 moles^−1 seconds^−1 |
| C[C@H](NC(=O)C(=O)Nc1ccc(F)cc1)C(=O)N[C@@H](CC(=O)O)C(=O)COP(=O)(c1ccccc1)c1ccccc1 [Example 43] | 13 nM | 956,000 moles^−1 seconds^−1 | 268,000 moles^−1 seconds^−1 | 52 nM | 9 nM | 424,000 moles^−1 seconds^−1 | 3.6 nM | 2,300,000 moles^−1 seconds^−1 |
| CC(C)[C@H](NC(=O)C(=O)Nc1cccc2ccccc12)C(=O)N[C@@H](CC(=O)O)C(=O)COP(C)(=O)c1ccccc1 (some centres unmarked) [Example 10] | 6.5 nM |  |  | 19 nM | 11 nM |  | 5.4 nM |  |
| C[C@H](NC(=O)C(=O)Nc1cc(C(C)(C)C)ccc1C(C)(C)C)C(=O)N[C@@H](CC(=O)O)C(=O)COC(=O)c1c(Cl)cccc1Cl [Example 60] | 26 nM | 289,000 moles^−1 seconds^−1 | 189,000 moles^−1 seconds^−1 | 58 nM | 49 nM | 146,000 moles^−1 seconds^−1 | 14 nM | 306,000 moles^−1 seconds^−1 |
| CC(C)[C@H](NC(=O)C(=O)Nc1c(F)cccc1F)C(=O)N[C@@H](CC(=O)O)C(=O)COc1c(F)c(F)cc(F)c1F [Example 108] | 4.8 nM | 2,680,000 moles^−1 seconds^−1 | 62,900 moles^−1 seconds^−1 | 102 nM | 8 nM | 1,083,000 moles^−1 seconds^−1 | 1.9 nM | 1,830,000 moles^−1 seconds^−1 |
| C[C@H](NC(=O)C(=O)NCCc1ccccc1)C(=O)N[C@@H](CC(=O)O)C(=O)COP(=O)(c1ccccc1)c1ccccc1 [Example 72] | 12 nM | 1,230,000 moles^−1 seconds^−1 | 169,000 moles^−1 seconds^−1 | 94 nM | 26 nM | 131,000 moles^−1 seconds^−1 | 8.1 nM | 667,000 moles^−1 seconds^−1 |
| C[C@H](NC(=O)C(=O)Nc1ccccc1-c1ccccc1)C(=O)N[C@@H](CC(=O)O)C(=O)COP(=O)(c1ccccc1)c1ccccc1 [Example 30] | 22 nM | 345,000 moles^−1 seconds^−1 | 243,000 moles^−1 seconds^−1 | 42 nM | 25 nM | 317,000 moles^−1 seconds^−1 | 24 nM | 207,000 moles^−1 seconds^−1 |
| C[C@H](NC(=O)C(=O)Nc1ccccc1C(C)(C)C)C(=O)N[C@@H](CC(=O)O)C(=O)COP(=O)(c1ccccc1)c1ccccc1 [Example 32] | 98 nM | 159,000 moles^−1 seconds^−1 | 327,000 moles^−1 seconds^−1 | 34 nM | 16 nM | 275,000 moles^−1 seconds^−1 | 10 nM | 282,000 moles^−1 seconds^−1 |
| CC(C)[C@H](NC(=O)C(=O)Nc1ccccc1-c1ccccc1)C(=O)N[C@@H](CC(=O)O)C(=O)COc1c(F)c(F)cc(F)c1F [Example 83] | 135 nM | 127,000 moles^−1 seconds^−1 | 25,400 moles^−1 seconds^−1 | 251 nM | 85 nM | 31,700 moles^−1 seconds^−1 | 30 nM | 65,300 moles^−1 seconds^−1 |
| CC(C)[C@H](NC(=O)C(=O)NC1CCCc2ccccc21)C(=O)N[C@@H](CC(=O)O)C(=O)COc1c(F)c(F)cc(F)c1F (some centres unmarked) [Example 104] | 4.5 nM | 2,320,000 moles^−1 seconds^−1 | 98,600 moles^−1 seconds^−1 | 84 nM | 13 nM | 160,000 moles^−1 seconds^−1 | 5.2 nM | 456,000 moles^−1 seconds^−1 |
| C[C@H](NC(=O)C(=O)NCc1cccc2ccccc12)C(=O)N[C@@H](CC(=O)O)C(=O)COC(=O)c1c(Cl)cccc1Cl [Example 34] | 9.9 nM | 1,160,000 moles^−1 seconds^−1 | 187,000 moles^−1 seconds^−1 | 43 nM | 11 nM | 214,000 moles^−1 seconds^−1 | 4.2 nM | 936,000 moles^−1 seconds^−1 |
